# Test results: patent publication US20040152746A1, “Treatment of scarring and related conditions using ppar-gamma activators” (priority 2001, published 2004)
# Marks after values point to notes of the source that are not given here.
# Test system: Human dermal fibroblasts differentiated to myofibroblasts with TGF-beta1
# Assay: Myofibroblast number after treatment with pioglitazone (alpha-smooth muscle actin immunohistochemistry)
# Type: cell-based
# Conditions: 3 days differentiation medium with 1 ng/ml TGF-beta1, % positive cells/total cells, control 3.47
# Method: Human dermal fibroblasts were cultured on sterile cover-slips and allowed to adhere for 24 hours in fibroblast medium, i.e. (1.0 ml L-Glutamine (200 mM; Gibco), 1.0 ml non-essential amino acids, NEAA(100×; Gibco), 1.0 ml penicillin/streptomycin (100×Gibco), 10 ml new-born calf serum, NBCS (Gibco), 87 ml Dulbecco's modified Eagle's Medium, DMEM (Gibco)). At confluence, the medium was changed to myofibroblast differentiation medium, i.e. 1.0 ml L-Glutamine (200 mM; Gibco), 1.0 ml non-essential amino acids, NEAA(100×; Gibco), 10 ml penicillin/streptomycin (100×Gibco), 1 ml ITS (Insulin, Transferrin, Selenium)(100×Gibco)) supplemented with 1 ng/ml TGF-beta1 (Sigma). Myofibroblast differentiation was allowed to proceed for 3 days either in the presence of variable concentrations of pioglitazone or without. Myofibroblast number was determined by immunohistochemistry according to the following protocol. Cells were washed in phosphate buffered saline (PBS), then fixed in 3% paraformaldehyde for 5 mins followed by quenching in 50 mM ammonium chloride. The cells were then washed and permeabilised with 0.2% Triton X-100 in PBS. All antibodies were diluted into 0.2% fish skin gelatin (FSG) (Sigma). Prior to antibody detection non-specific binding was blocked using 0.2% FSG in PBS. Mouse anti-human alpha-smooth muscle actin (Sigma) was diluted 1:100 and incubated with the cells for 45 mins followed by washing. Rabbit anti-mouse immunoglobulin horseradish-peroxidase secondary antibody was incubated for 30 mins. Visualisation used Fast-DAB (Sigma) according to manufacturer's instructions. Cells were counterstained with haemotoxylin. […] Haemotoxylin stained nuclei were counted by the software using size-exclusion parameters which excluded small and large debris. Accuracy was determined within the software using binary overlays of the counted objects to examine if any non-nuclei counts occurred or if any nuclei were missed. […] DAB positive cells were counted by hand on the captured images. Counts are expressed as % positive cells/total cells.
compound,measurement,setting,value
CCc1ccc(CCOc2ccc(CC3SC(=O)NC3=O)cc2)nc1 (stereo not drawn) [pioglitazone],% Myofibroblasts,"0.1 μM pioglitazone, p < 0.05",1.81* %
same,% Myofibroblasts,"1 μM pioglitazone, p < 0.005",0.71** %
same,% Myofibroblasts,"10 μM pioglitazone, p < 0.005",0.10** %
